#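 Briefly, cells in 96-well plates were exposed to five compound concentrations for 48 h, and endpoints were estimated by linear interpolation. Here, GI50 denotes the concentration required for 50% inhibition of growth. TGI: concentration producing complete growth inhibition.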
# Key:
# Experiment in all cases: DTP human tumour cell line panel, 48 h
# PC-3 prostate = tested on: PC-3 prostate
# IGROV1 ovarian = tested on: IGROV1 ovarian
# MALME-3M melanoma = tested on: MALME-3M melanoma
# HT29 colon = tested on: HT29 colon
# HOP-62 NSCLC = tested on: HOP-62 NSCLC
# CAKI-1 renal = tested on: CAKI-1 renal
# COLO 205 colon = tested on: COLO 205 colon
# UO-31 renal = tested on: UO-31 renal
# DU-145 prostate = tested on: DU-145 prostate
# M14 melanoma = tested on: M14 melanoma
Structure (SMILES),GI50 (PC-3 prostate) [µM],TGI (PC-3 prostate) [µM],GI50 (IGROV1 ovarian) [µM],TGI (IGROV1 ovarian) [µM],GI50 (MALME-3M melanoma) [µM],TGI (MALME-3M melanoma) [µM],GI50 (HT29 colon) [µM],TGI (HT29 colon) [µM],GI50 (HOP-62 NSCLC) [µM],TGI (HOP-62 NSCLC) [µM],GI50 (CAKI-1 renal) [µM],TGI (CAKI-1 renal) [µM],GI50 (COLO 205 colon) [µM],TGI (COLO 205 colon) [µM],GI50 (UO-31 renal) [µM],TGI (UO-31 renal) [µM],GI50 (DU-145 prostate) [µM],TGI (DU-145 prostate) [µM],TGI (M14 melanoma) [µM],GI50 (M14 melanoma) [µM]
O=C(NN=C1CCCCC1)c1[nH]c2ccc(F)cc2c1-c1ccccc1,52.1,> 100,65.9,> 100,> 100,> 100,20.9,46.5,35.6,> 100,34.5,> 100,41.6,> 100,42.6,> 100,92.2,> 100,,
O=S(O)CCCSSc1ccccc1,,,,41.1,,> 100,,> 100,,> 100,,> 100,,> 100,,> 100,,,> 100,
O=C1CC(O)(c2ccccc2)C(c2ccccc2)=C1c1ccccc1 (stereo not given),,,,> 100,,> 100,,> 100,,> 100,,> 100,,35.7,,,,,> 100,
Cc1cn2c(/C=N/N=C(N)N)c(-c3cccnc3)nc2s1,6.95,24.7,15.6,49.8,8.14,21.4,4.18,16.1,10,24,8.07,22.4,11.6,27.5,6.1,21.4,,,23.5,10
CCC[CH2][Sn]1([CH2]CCC)[O]C(=O)c2ccc(C)cc2[O]1,,,1.17,2.44,0.327,1.44,1.34,2.97,2.16,3.88,0.229,0.669,0.465,1.61,0.845,2.08,,,1.84,0.584
N#CC1=C(N)NC(=S)NC12Nc1ccccc1N2,28.5,> 100,26.9,> 100,13.5,69.2,,,55.5,> 100,19.8,> 100,32.6,> 100,55.2,> 100,65.3,> 100,> 100,40
N#C/C(=C/Sc1ccccc1)C(=O)O,,,,37.2,,,,84.1,,> 100,,79.5,,47.5,,41.4,,,57.2,
C/C(=C\COc1c2c(cc3c1CCO3)OC1(C=C2)OC(CC/C(C)=C/COc2c3ccoc3cc3oc(=O)ccc23)C(C)(C)O1)CCC(O)C(C)(C)O (stereo not given),6.56,> 100,,,68.7,> 100,22.4,> 100,> 100,> 100,8.07,> 100,23.1,> 100,25.7,> 100,> 100,> 100,> 100,85.1
